Experimental data taken from US8470867B2, “Sigma receptor inhibitors” (Laboratorios Del Dr. Esteve, S.A., priority 2004, dated 2013).
pKi: −log10 of the molar value. Structures can show the parent of a compound that is named as a salt.

Target: T1, σ1-receptor (Cavia porcellus, UniProt Q60492)
T1 construct: guinea pig brains were homogenized; from tissue; host or cells: guinea pig brain membranes
Assay: Sigma-1 receptor binding, [3H](+)-pentazocine, brain membranes
Set-up: species or system guinea pig
Details: not given
Protocol: Brain membrane preparation and binding assays for the σ1-receptor were performed as described (DeHaven-Hudkins et al., 1992) with some modifications. In brief, guinea pig brains were homogenized in 10 vols. (w/v) of Tris-HCl 50 mM 0.32 M sucrose, pH 7.4, with a Kinematica Polytron PT 3000 at 15000 r.p.m. for 30 s. The homogenate was centrifuged at 1000 g for […] at 4° C. and the supernatants collected and centrifuged again at 48000 g for 15 min at 4° C. The pellet was resuspended in 10 volumes of Tris-HCl buffer (50 mM, pH 7.4), incubated at 37° C. for 30 min, and centrifuged at 48000 g for 20 min at 4° C. Following this, the pellet was resuspended in fresh Tris-HCl buffer (50 mM, pH 7.4) and stored on ice until use.
Each assay tube contained 10 μL of [^3H](+)-pentazocine (final concentration of 0.5 nM), 900 μL of the tissue suspension to a final assay volume of 1 mL and a final tissue concentration of approximately 30 mg tissue net weight/mL. […] All tubes were incubated at 37° C. for 150 min before termination of the reaction by rapid filtration over Schleicher & Schuell GF 3362 glass fibre filters [previously soaked in a solution of 0.5% polyethylenimine for at least 1 h]. Filters were then washed with four times with 4 mL of cold Tris-HCl buffer (50 mM, pH 7.4). Following addition of scintillation cocktail, the samples were allowed to equilibrate overnight. The amount of bound radioactivity was determined by liquid scintillation spectrometry using a Wallac Winspectral 1414 liquid scintillation counter. Protein concentrations were determined by the method of Lowry et al. (1951).

T1 sequence (Q60492 whole entry): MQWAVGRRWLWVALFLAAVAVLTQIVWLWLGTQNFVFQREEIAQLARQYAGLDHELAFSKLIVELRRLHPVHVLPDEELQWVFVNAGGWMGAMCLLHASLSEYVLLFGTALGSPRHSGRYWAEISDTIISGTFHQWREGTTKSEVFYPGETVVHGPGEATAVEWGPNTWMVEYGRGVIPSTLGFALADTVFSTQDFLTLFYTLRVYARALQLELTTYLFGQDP

Row | Compound | pKi
1 | Cc1cc(OCCCCN2CCCC2)nn1-c1ccc(Cl)c(Cl)c1 [Example 23, 1-(3,4-Dichlorophenyl)-5-methyl-3-[4-(pyrrolidin-1-yl)butoxy]-1H-pyrazole] | 8.36
2 | CCN(CC)CCCCOc1cc(C)n(-c2ccc(Cl)c(Cl)c2)n1 [Example 27, 4-[1-(3,4-Dichlorophenyl)-5-methyl-1H-pyrazol-3-yloxy]-N,N-diethylbutan-1-amine] | 8.39
3 | CC(C)c1cc(OCCN2CCCCC2)nn1-c1ccc(Cl)c(Cl)c1 [Example 35, 1-{2-[1-(3,4-Dichlorophenyl)-5-isopropyl-4H-pyrazol-3-yloxy]ethyl}piperidine] | 8.07

Same assay, conditions: 10^−7 M

Row | inhibition at 0.1 µM [%] | % Binding σ1 [%] | Compound
4 | 94.4 |  | Cc1cc(OCCN2CCC(n3cnc4cccnc43)CC2)nn1-c1ccc(Cl)c(Cl)c1 [Example 7, 3-{1-[2-(1-(3,4-Dichlorophenyl)-5-methyl-1H-pyrazol-3-yloxy)ethyl]piperidin-4-yl}-3H-imidazo[4,5-b]pyridine]
5 | 94.5 |  | Cc1cc(OCCN2CCN(C)CC2)nn1-c1ccc(Cl)c(Cl)c1 [Example 8, 1-{2-[1-(3,4-Dichlorophenyl)-5-methyl-1H-pyrazol-3-yloxy]ethyl}-4-methylpiperazine]
6 | 99.5 |  | CCOC(=O)N1CCN(CCOc2cc(C)n(-c3ccc(Cl)c(Cl)c3)n2)CC1 [Example 9, Ethyl 4-{2-[1-(3,4-dichlorophenyl)-5-methyl-1H-pyrazol-3-yloxy]ethyl}piperazine carboxylate]
7 | 50.9 |  | COc1ccc(-n2nc(OCCCN3CCCC3)cc2C)cc1 [Example 13, 1-(4-Methoxyphenyl)-5-methyl-3-[3-(pyrrolidin-1-yl)propoxy]-1H-pyrazole]
8 | 48.9 |  | COc1ccc(-n2nc(OCCN3CCCCC3)cc2C)cc1 [Example 14, 1-[2-(1-(4-Methoxyphenyl)-5-methyl-1H-pyrazol-3-yloxy)ethyl]piperidine]
9 | 46.5 |  | Cl.Clc1ccc(-n2nc(OCCN3CCOCC3)cc2-c2ccccc2)cc1Cl [Example 16, 4-{2-[1-(3,4-Dichlorophenyl)-5-phenyl-1H-pyrazol-3-yloxy]ethyl}morpholine hydrochloride]
10 | 58.6 |  | Clc1ccc(-n2nc(OCCCN3CCCC3)cc2-c2ccccc2)cc1Cl [Example 18, 1-(3,4-Dichlorophenyl)-5-phenyl-3-[3-(pyrrolidin-1-yl)propoxy]-1H-pyrazole]
11 | 80.1 |  | Clc1ccc(-n2nc(OCCN3CCCCC3)cc2-c2ccccc2)cc1Cl [Example 19, 1-{2-[1-(3,4-Dichlorophenyl)-5-phenyl-1H-pyrazol-3-yloxy]ethyl}piperidine]
12 | 99.2 |  | CCN(CC)CCCCOc1cc(C)n(-c2ccc(Cl)c(Cl)c2)n1 [Example 27, 4-[1-(3,4-Dichlorophenyl)-5-methyl-1H-pyrazol-3-yloxy]-N,N-diethylbutan-1-amine]
13 | 83 |  | Cc1cc(OCCCCN2CCc3ccccc3C2)nn1-c1ccc(Cl)c(Cl)c1 [Example 30, 2-{4-[1-(3,4-dichlorophenyl)-5-methyl-1H-pyrazol-3-yloxy]butyl}-1,2,3,4-tetrahydroisoquinoline]
14 | 72.7 |  | CCN(CC)CCOc1cc(C(C)C)n(-c2ccc(Cl)c(Cl)c2)n1 [Example 32, 2-[1-(3,4-Dichlorophenyl)-5-isopropyl-1H-pyrazol-3-yloxy]-N,N-diethylethanamine]
15 | 102 |  | CC(C)c1cc(OCCN2CCCCC2)nn1-c1ccc(Cl)c(Cl)c1 [Example 35, 1-{2-[1-(3,4-Dichlorophenyl)-5-isopropyl-4H-pyrazol-3-yloxy]ethyl}piperidine]
16 | 108 |  | Clc1ccc(-n2ccc(OCCN3CCOCC3)n2)cc1Cl [Example 37, 4-{2-[1-(3,4-dichlorophenyl)-1H-pyrazol-3-yloxy]ethyl}morpholine]
17 | 108 |  | CCN(CC)CCOc1ccn(-c2ccc(Cl)c(Cl)c2)n1 [Example 38, 2-[1-(3,4-dichlorophenyl)-1H-pyrazol-3-yloxy]N,N-diethylethanamine]
18 | 110 |  | Clc1ccc(-n2ccc(OCCN3CCCC3)n2)cc1Cl [Example 39, 1-(3,4-dichlorophenyl)-3-[2-(pyrrolidin-1-yl)ethoxy]-1H-pyrazole]
19 | 110 |  | Clc1ccc(-n2ccc(OCCN3CCCCC3)n2)cc1Cl [Example 40, 1-{2-[1-(3,4-dichlorophenyl)-1H-pyrazol-3-yloxy]ethyl}piperidine]
20 |  | 93.6 | Cc1cc(OCCN2CCOCC2)nn1-c1ccc2ccccc2c1 [Example 61, 4-{2-[5-Methyl-1-(naphthalen-2-yl)-1H-pyrazol-3-yloxy]ethyl}morpholine]
21 | 69.2 |  | CCN(CC)CCOc1cc(C)n(-c2ccc3ccccc3c2)n1 [Example 62, N,N-Diethyl-2-[5-methyl-1-(naphthalen-2-yl)-1H-pyrazol-3-yloxy]ethanamine]

Second part, the compound before the results:

Row | Compound | inhibition at 0.1 µM [%] | % Binding σ1 [%]
22 | CCN(CC)CCOc1cc(C)n(-c2ccc(Cl)c(Cl)c2)n1 [Example 2, 2-[1-(3,4-Dichlorophenyl)-5-methyl-1H-pyrazol-3-yloxy]-N,N-diethylethanamine hydrochloride] | 95.1 | 
23 | Cc1cc(OCCN2CCCC2)nn1-c1ccc(Cl)c(Cl)c1.Cl [Example 3, 1-(3,4-Dichlorophenyl)-5-methyl-3-[2-(pyrrolidin-1-yl)ethoxy]-1H-pyrazole hydrochloride] | 102 | 
24 | Cc1cc(OCCCN2CCCC2)nn1-c1ccc(Cl)c(Cl)c1.Cl [Example 4, 1-(3,4-Dichlorophenyl)-5-methyl-3-[3-(pyrrolidin-1-yl)propoxy]-1H-pyrazole hydrochloride] | 98 | 
25 | Cc1cc(OCCN2CCCCC2)nn1-c1ccc(Cl)c(Cl)c1 [Example 5, 1-{2-[1-(3,4-dichlorophenyl)-5-methyl-1H-pyrazol-3-yloxy]ethyl}piperidine] | 108 | 
26 | Cc1cc(OCCCCN2CCCC2)nn1-c1ccc(Cl)c(Cl)c1 [Example 23, 1-(3,4-Dichlorophenyl)-5-methyl-3-[4-(pyrrolidin-1-yl)butoxy]-1H-pyrazole] | 96.4 | 

Test system: not given
Assay: not given
Details: not given

Row | melting point | Compound
27 | 162 to 166 °C | Clc1ccc(-n2ccc(OCCN3CCOCC3)n2)cc1Cl (as salt: hydrochloride) [Example 37, 4-{2-[1-(3,4-dichlorophenyl)-1H-pyrazol-3-yloxy]ethyl}morpholine]
28 | 172 to 176 °C | Clc1ccc(-n2ccc(OCCN3CCCC3)n2)cc1Cl (as salt: hydrochloride) [Example 39, 1-(3,4-dichlorophenyl)-3-[2-(pyrrolidin-1-yl)ethoxy]-1H-pyrazole]
29 | 172 to 177 °C | Clc1ccc(-n2ccc(OCCN3CCCCC3)n2)cc1Cl (as salt: hydrochloride) [Example 40, 1-{2-[1-(3,4-dichlorophenyl)-1H-pyrazol-3-yloxy]ethyl}piperidine]
30 | 156 to 159 °C | Clc1ccc(-n2ccc(OCCCN3CCCC3)n2)cc1Cl (as salt: hydrochloride) [Example 41, 1-(3,4-dichlorophenyl)-3-[3-(pyrrolidin-1-yl)propoxy]-1H-pyrazole]
31 | 111 to 112 °C | Cc1cc(OCCn2ccnc2)nn1-c1ccc(Cl)c(Cl)c1 [Example 6, 1-{2-[1-(3,4-dichlorophenyl)-5-methyl-1H-pyrazol-3-yloxy]ethyl}-1H-imidazole]
32 | 104 to 107 °C | Cc1cc(OCCN2CCC(n3cnc4cccnc43)CC2)nn1-c1ccc(Cl)c(Cl)c1 [Example 7, 3-{1-[2-(1-(3,4-Dichlorophenyl)-5-methyl-1H-pyrazol-3-yloxy)ethyl]piperidin-4-yl}-3H-imidazo[4,5-b]pyridine]
33 | 197 to 207 °C | Cl.Clc1ccc(-n2nc(OCCN3CCOCC3)cc2-c2ccccc2)cc1Cl [Example 16, 4-{2-[1-(3,4-Dichlorophenyl)-5-phenyl-1H-pyrazol-3-yloxy]ethyl}morpholine hydrochloride]
34 | 64 to 67 °C | Cc1c(OCCN2CCCCC2)nn(-c2ccc(Cl)c(Cl)c2)c1C [Example 48, 1-(2-(1-(3,4-Dichlorophenyl)-4,5-dimethyl-1H-pyrazol-3-yloxy)ethyl)piperidine]

The remaining lines, values behind:

Row | Compound | melting point
35 | COc1ccc(-n2nc(OCCN3CCOCC3)cc2C)cc1.Cl | 169 to 173 °C
36 | Cl.Clc1ccc(-n2nc(OCCn3ccnc3)cc2-c2ccccc2)cc1Cl | 147 to 155 °C
37 | CCN(CC)CCOc1nn(-c2ccc(Cl)c(Cl)c2)c(C)c1C.Cl | 134 to 136 °C
38 | Cc1c(OCCN2CCCC2)nn(-c2ccc(Cl)c(Cl)c2)c1C.Cl | 146 to 148 °C
39 | Cc1c(OCCCN2CCCC2)nn(-c2ccc(Cl)c(Cl)c2)c1C.Cl | 155 to 157 °C
40 | Cl.Clc1ccc(-n2ccc(OCCCCN3CCOCC3)n2)cc1Cl | 165 to 169 °C
41 | C[C@@H]1CN(CCCCOc2ccn(-c3ccc(Cl)c(Cl)c3)n2)C[C@H](C)O1.Cl | 149 to 154 °C
42 | Cl.Clc1ccc(-n2ccc(OCCCCN3CCCCC3)n2)cc1Cl | 156 to 161 °C
43 | Cl.Clc1ccc(-n2ccc(OCCCCN3CCCC3)n2)cc1Cl | 181 to 186 °C
44 | CCN(CC)CCCCOc1ccn(-c2ccc(Cl)c(Cl)c2)n1.O=C(O)C(=O)O | 130 to 135 °C
45 | COCCN(C)CCCCOc1ccn(-c2ccc(Cl)c(Cl)c2)n1.O=C(O)C(=O)O | 97 to 100 °C
46 | Clc1ccc(-n2ccc(OCCCCN3CCSCC3)n2)cc1Cl.O=C(O)C(=O)O | 175 to 177 °C
47 | CC(=O)c1c(OCCN2CCOCC2)nn(-c2ccc(Cl)c(Cl)c2)c1C.O=C(O)C(=O)O | 188 to 192 °C
48 | CC(=O)c1c(OCCN2CCCC2)nn(-c2ccc(Cl)c(Cl)c2)c1C.O=C(O)C(=O)O | 159 to 162 °C
49 | CC(=O)c1c(OCCN2CCCCC2)nn(-c2ccc(Cl)c(Cl)c2)c1C.O=C(O)C(=O)O | 158 to 161 °C
50 | CCN(CC)CCOc1nn(-c2ccc(Cl)c(Cl)c2)c(C)c1C(C)=O.O=C(O)C(=O)O | 147 to 149 °C
51 | Cc1cc(OCCN2CCCC2)nn1-c1ccc(Cl)c(Cl)c1.Cl [Example 3, 1-(3,4-Dichlorophenyl)-5-methyl-3-[2-(pyrrolidin-1-yl)ethoxy]-1H-pyrazole hydrochloride] | > 280 °C (dec.)
52 | Cc1cc(OCCCN2CCCC2)nn1-c1ccc(Cl)c(Cl)c1.Cl [Example 4, 1-(3,4-Dichlorophenyl)-5-methyl-3-[3-(pyrrolidin-1-yl)propoxy]-1H-pyrazole hydrochloride] | 149 to 155 °C
53 | Cc1cc(OCCN2CCCCC2)nn1-c1ccc(Cl)c(Cl)c1 [Example 5, 1-{2-[1-(3,4-dichlorophenyl)-5-methyl-1H-pyrazol-3-yloxy]ethyl}piperidine] | 119 to 122 °C
